From patent US5330994A, “Tetrahydropyridine isoxazoline derivatives” (Warner-Lambert Company, priority 1992, dated 1994)
Where a name gives a salt, the structure may show the parent alone.

Tests used:
[1] = biological target: T1, sigma binding site (Rattus norvegicus, UniProt Q9R0C9); test: Sigma binding affinity using [^3 H]-(+)-3-(3'-hydroxyphenyl)-N-(1'-propyl)-piperdine (3PPP); details: [^3 H]PPP radioligand
T1 construct: from tissue
Protocol: (§1) Sigma binding affinities are measured using [^3 H]-(+)-3-(3'-hydroxyphenyl)-N-(1'-propyl)-piperdine, referred to in the following Table I as 3PPP. This test is carried out according to the procedures of B. L. Largent, et al, Proc. Natl. Acad. Sci., USA, 1984; 81:5618. The ability of the compounds to bind muscarinic antagonist sites was determined invitro using [^3 H]quinuclidinyl benzylate (RQNB) according to the procedure of M. Watson, J. Pharmacol. Exp. Ther. 1986; 237-411.

[2] = system: muscarinic antagonist sites; test: Binding to muscarinic antagonist sites using [^3 H]quinuclidinyl benzylate (RQNB); details: [^3 H]quinuclidinyl benzylate radioligand
Protocol: as §1

T1 sequence (Q9R0C9 whole entry): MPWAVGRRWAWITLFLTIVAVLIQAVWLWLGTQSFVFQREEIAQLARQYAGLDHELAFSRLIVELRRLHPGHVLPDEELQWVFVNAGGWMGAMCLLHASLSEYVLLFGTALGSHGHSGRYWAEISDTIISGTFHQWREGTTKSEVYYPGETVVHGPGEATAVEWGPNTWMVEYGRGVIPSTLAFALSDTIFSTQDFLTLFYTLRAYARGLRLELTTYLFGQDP

Compound	IC50 [1]	RQNB % Inhibition @ 1 μM [2]
CCCN1CCC=C(C2=NOC(c3ccccc3)C2)C1 (stereo not shown) [Example 1, 3-[3'-(1'-propyl-1', 2', 5', 6'-tetrahydropyridinyl)]-5-phenyl-2-isoxazoline]	7.05 nM	10%
CCCN1CCC=C(C2=NOC(c3ccc(OC)cc3)C2)C1 (stereo not shown) [Example 2, 3-[3'-(1'-Propyl-1', 2', 5', 6'-tetrahydropyridinyl) ]-5-(4'-methoxyphenyl)-2-isoxazoline]	39.1 nM	7%
CCCN1CCC=C(C2=NOC(c3ccc(Cl)cc3)C2)C1 (stereo not shown) [Example 3, 3-[3'-(1'-Propyl-1', 2', 5', 6'-tetrahydropyridinyl)]-5-(4'-chlorophenyl)-2-isoxazoline]	1.03 nM	22%
CCCN1CCC=C(c2cc(-c3ccccc3)no2)C1 [Example 4A, 3-phenyl-5-[3'-(1'-propyl-1', 2', 5', 6'-tetrahydropyridinyl)]isoxazole oxalate]	0.78 nM	10%
CCCN1CCC=C(c2cc(-c3ccccc3)on2)C1 [Example 4B, 3-[3'-(1'-propyl-1', 2', 5', 6'-tetrahydropyridinyl)]-5-phenylisoxazole oxalate]	8.8 nM	4%
CCCN1CCC=C(c2cc(-c3ccc(C)cc3)no2)C1 [Example 5A, 3-(4'-Methylphenyl)-5-[3'-(1'-propyl-1', 2', 5', 6'-tetrahydropyridinyl)]isoxazole oxalate]	0.067 nM	10%
CCCN1CCC=C(c2cc(-c3ccc(C)cc3)on2)C1 [Example 5B, 3-[3'-(1'-propyl-1', 2', 5', 6'-tetrahydropyridinyl)]-5-(4'-methylphenyl)isoxazole oxalate]	0.62 nM	6%
CCCN1CCC=C(c2cc(-c3cccc(OC)c3)no2)C1 [Example 6A, 3-(3'-Methoxyphenyl)-5-[3'-(1'-propyl-1', 2', 5', 6'-tetrahydropyridinyl)]isoxazole oxalate]	4 nM	15%
CCCN1CCC=C(c2cc(-c3cccc(OC)c3)on2)C1 [Example 6B, 3-[3'-(1'-propyl-1', 2', 5', 6'-tetrahydropyridinyl)]-5-(3'-methoxyphenyl)isoxazole oxalate]	0.1 nM	7%
CCCN1CCC=C(c2cc(-c3cccc(C)c3)no2)C1 [Example 7A, 3-(3'-Methylphenyl)-5-[3'-(1'-propyl-1', 2', 5', 6'-tetrahydropyridinyl)]isoxazole oxalate]	0.45 nM	10%
CCCN1CCC=C(c2cc(-c3cccc(C)c3)on2)C1 [Example 7B, 3-[3'-(1'-propyl-1', 2', 5', 6'-tetrahydropyridinyl)]-5-(3'-methylphenyl)isoxazole oxalate]	9.9 nM	10%
CCCN1CCC=C(c2cc(-c3ccccc3C)no2)C1 [Example 8A, 3-(2'-Methylphenyl)-5-[3'-(1'-propyl-1', 2', 5', 6'-tetrahydropyridinyl)]isoxazole oxalate]	3640 nM	40%
CCCN1CCC=C(c2cc(-c3ccccc3C)on2)C1 [Example 8B, 3-[3'-(1'-propyl-1', 2', 5', 6'-tetrahydropyridinyl)]-5-(2'-methylphenyl)isoxazole oxalate]	546 nM	12%
CCCN1CCC=C(c2cc(-c3ccccc3OC)no2)C1 [Example 9A, 3-(2'-Methoxyphenyl)-5-[3'-(1'-propyl-1', 2', 5', 6'-tetrahydropyridinyl)]isoxazole oxalate]	> 10000 nM	23%
CCCN1CCC=C(c2cc(-c3ccccc3OC)on2)C1 [Example 9B, 3-[3'-(1'-propyl-1', 2', 5', 6'-tetrahydropyridinyl)]-5-(2'-methoxyphenyl)isoxazole oxalate]	10000 nM	12%
CCCN1CCC=C(c2cc(-c3ccc(OC)cc3)no2)C1 [Example 14A, 3-(4'-Methoxyphenyl)-5-[3'-(1'-propyl-1', 2', 5', 6'-tetrahydropyridinyl)]isoxazole oxalate]	10000 nM	11%
CCCN1CCC=C(c2cc(-c3ccc(OC)cc3)on2)C1 [Example 14B, 3-[3'-(1'-propyl-1', 2', 5', 6'-tetrahydropyridinyl)]-5-(4'-methoxyphenyl)isoxazole oxalate]	1470 nM	9%
